Key:
SOS1/KRAS-G12D = SOS1/KRAS-G12D (Homo sapiens (Human), UniProt Q07889); assay: SOS1/KRAS-G12D binding inhibition assay (AlphaScreen); conditions: GST-SOS1 and 6*His KRAS-G12D, read-out: KrasG12D/SOS1 binding IC50
Procedure: Example 22: SOS1/KRAS-G12D Binding Inhibition Assay
SOS1 binding affinity of candidate compounds was measured by monitoring the interaction of SOS1 with KRAS-G12D in the presence of the test compound. Briefly, 5 nM GST tagged SOS1 proteins (final concentration) were pre-incubated with 50 nM 6*His tagged KRAS-G12D proteins (final concentration) in an assay buffer containing 10 mM HEPES, pH 7.4, 150 mM NaCl, 1 mM DTT, 5 mM MgCl2, 0.1% Tween-20, and 0.05% BSA for 30 minutes. The test compounds in 2% DMSO (final concentration) at various concentrations were then added to the reaction mixture and incubated for another 30 minutes at 4° C. 5 ug/ml GSH AlphaScreen donor beads (PerkinElmer, 6765300) and 5 ug/ml nickel chelate (Ni-NTA) AlphaScreen acceptor beads (PerkinElmer, 6760619C) (final concentrations) were then added to the mixture. After an incubation of 2 hours at 4° C., the fluorescent signals were obtained on the EnVision® 2105 Multilabel Plate Reader (PerkinElmer).
Raw AlphaScreen data were converted to a percentage of inhibition (relative to DMSO) using the following equations: • a) For a given test compound concentration X:
Signal (X)=Signal (SOS1 & KRAS-G12D & compound)-Signal (buffer & KRAS-G12D & compound)
Percentage of inhibition at concentration X=[1−Signal (X)/Signal (DMSO)]*100% b)
The IC50 values were determined by nonlinear regression of plots of [inhibitor] vs. percentage of inhibition with variable slope, analyzed using GraphPad Prism 9.

[1] = system: Phospho-ERK1/2 in DLD1 cells; assay: Phospho-ERK1/2 expression inhibition in DLD1 cells; assay type: cell-based; conditions: Homo sapiens, DLD-1, 4 hours, read-out: DLD1 pERK IC50
Procedure: Example 23: Phospho-ERK1/2 Expression Inhibition in DLD1 Cells
DLD1 cells were obtained from American Type Culture Collection (ATCC). DLD1 cells were plated in 96-well plates (VWR #10062-900, or Corning #3904) in 90 uL culture medium at a density of 15,000 cells/well in the RPM11640 growth medium containing 10% FBS and 1% Penicillin Streptomycin, and then incubated at 37° C. overnight. The following day, the test compound was administered to the cells by using 1000×x compound stock solution prepared in DMSO at various concentrations. 1000× compound stock solution was first diluted in culturing medium to 10×, then 10 uL compound medium was added to each well in the cell plates. After administration of the compound, the cells were then incubated at 37° C. for 4 hours. Upon completion, the cells were washed with PBS briefly. 150 uL/well of 4% formaldehyde was added and the plates were incubated at room temperature for 20 mins. The cells were washed with PBS briefly, and permeabilized with 150 uL/well of ice cold 100% methanol for 10 mins. The cells were washed with PBS briefly and blocked with 100 uL/well LI-COR blocking buffer for 1 hr at room temperature with gentle shaking. The cells were incubated overnight at 4° C. with 50 uL primary antibody rabbit anti-Phospho-ERK1/2 (1: 500, Cell Signaling, #4370) diluted in Intercept Blocking Buffer (LI-COR, #927-60001) containing 0.1% Tween 20. The next day, the cells were washed with 200 uL PBS containing 0.1% Tween 20, 5×5 mins at room temperature with gentle shaking, and incubated with 50 uL secondary antibody, IRDye® 800CW Goat anti-Rabbit IgG (LI-COR, #926-32211), 1:1000, in LI-COR blocking buffer with 0.2% Tween 20 for 1 hr at room temperature with gentle shaking. The cells were washed with 200 uL PBS containing 0.1% Tween 20, 5×5 mins at room temperature with gentle shaking. The cells were washed with PBS for 5 mins. 100 uL fresh PBS was added to each well and the plates were imaged on a LI-COR Odyssey CLX plate reader.

K562 cells = assay: Cell growth inhibition of K562 cells (CellTiter-Glo); assay type: cell-based; conditions: Homo sapiens, 120 h, 5 days
Procedure: Example 24: Cell Growth Inhibition of K562 Cells
K562 cells were obtained from American Type Culture Collection (ATCC). For cell growth assay, K562 cells were seeded in 96-well plates at 1000 cells/well in 90 μl of RPM11640 growth medium containing 10% FBS and 1% Penicillin Streptomycin, and then incubated at 37° C. for 1 hour. The test compound was administered to the cells by using 1000× compound stock solution prepared in DMSO at various concentrations. 1000× compound stock solution was first diluted in culturing medium to 10×, then 10 uL compound medium was added to each well in the cell plates. After administration of the compound, the cells were then incubated at 37° C. for 5 days. Upon completion, the plates were equilibrated at room temperature for approximately 10 minutes. 100 ul of CellTiter-Glo® Reagent (Promega) was added to each well. The plates were then incubated at room temperature for 10 minutes and luminescence was recorded by EnSpire plate reader (PerkinElmer).

Chain of SOS1/KRAS-G12D (Q07889 564-1049 limits assumed): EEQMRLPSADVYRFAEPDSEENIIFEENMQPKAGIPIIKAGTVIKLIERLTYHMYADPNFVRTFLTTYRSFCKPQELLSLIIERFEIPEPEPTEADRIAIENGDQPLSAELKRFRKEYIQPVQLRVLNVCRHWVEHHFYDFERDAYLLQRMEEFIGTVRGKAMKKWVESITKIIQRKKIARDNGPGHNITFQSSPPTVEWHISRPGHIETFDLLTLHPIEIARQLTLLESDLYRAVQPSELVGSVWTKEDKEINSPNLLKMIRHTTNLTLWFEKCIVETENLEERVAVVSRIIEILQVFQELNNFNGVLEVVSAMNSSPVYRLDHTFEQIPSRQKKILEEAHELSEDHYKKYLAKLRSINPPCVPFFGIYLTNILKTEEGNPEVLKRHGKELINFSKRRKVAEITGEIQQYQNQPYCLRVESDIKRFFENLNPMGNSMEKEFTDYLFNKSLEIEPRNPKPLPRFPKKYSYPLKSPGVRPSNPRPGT

`Cc1c([C@@H](C)Nc2ccnc3ccc(N4CCN(C(=O)C5CC5)CC4)cc23)cccc1C(F)(F)F` [Compound 26, (R)-cyclopropyl(4-(4-((1-(2-methyl-3-(trifluoromethyl)phenyl)ethyl)amino)quinolin-6-yl)piperazin-1-yl)methanone] gave an IC50 (SOS1/KRAS-G12D) of 0.01 to 0.1 µM, an IC50 [1] greater than 0.5 µM and a GI50 (K562 cells) of 0.1 to 0.5 µM.

In the case of `CC(=O)N1CCN(c2ccc3nccc(N[C@H](C)c4cccc(C(F)(F)F)c4C)c3c2)CC1` [Compound 27, (R)-1-(4-(4-((1-(2-methyl-3-(trifluoromethyl)phenyl)ethyl)amino)quinolin-6-yl)piperazin-1-yl)ethan-1-one], the IC50 (SOS1/KRAS-G12D) is reported as 0.01 to 0.1 µM, the IC50 [1] is reported as greater than 0.5 µM and the GI50 (K562 cells) is reported as greater than 0.5 µM.

In the case of `CNC1CCN(c2ccc3nccc(N[C@H](C)c4cccc(C(F)(F)F)c4C)c3c2)CC1` [Compound 28, (R)-N-(1-(2-methyl-3-(trifluoromethyl)phenyl)ethyl)-6-(4-(methylamino)piperidin-1-yl)quinolin-4-amine], the IC50 (SOS1/KRAS-G12D) is reported as 0.01 to 0.1 µM, the IC50 [1] is reported as greater than 0.5 µM and the GI50 (K562 cells) is reported as greater than 0.5 µM.

With `Cc1c([C@@H](C)Nc2ccnc3ccc(N4CCN(C(=O)C5COC5)CC4)cc23)cccc1C(F)(F)F` [Compound 29, (R)-(4-(4-((1-(2-methyl-3-(trifluoromethyl)phenyl)ethyl)amino)quinolin-6-yl)piperazin-1-yl)(oxetan-3-yl)methanone] the IC50 (SOS1/KRAS-G12D) was 0.01 to 0.1 µM, the IC50 [1] was greater than 0.5 µM and the GI50 (K562 cells) was 0.1 to 0.5 µM.

`C[C@@H](Nc1ccnc2c(F)cc(N3CC[C@@H](N)C3)cc12)c1cccc(C(F)F)c1F` [Compound 30, 6-((R)-3-aminopyrrolidin-1-yl)-N-((R)-1-(3-(difluoromethyl)-2-fluorophenyl)ethyl)-8-fluoroquinolin-4-amine] was tested, and the IC50 (SOS1/KRAS-G12D) was 0.01 to 0.1 µM, the IC50 [1] was greater than 0.5 µM and the GI50 (K562 cells) was 0.1 to 0.5 µM.

For `C[C@@H](Nc1ccnc2ccc(N3CC[C@@H](N(C)C)C3)cc12)c1cccc(C(F)F)c1F` [Compound 31, N-((R)-1-(3-(difluoromethyl)-2-fluorophenyl)ethyl)-6-((R)-3-(dimethylamino)pyrrolidin-1-yl)quinolin-4-amine], the IC50 (SOS1/KRAS-G12D) was no more than 0.01 µM, the IC50 [1] was greater than 0.5 µM and the GI50 (K562 cells) was no more than 0.1 µM.

With `Cc1c([C@@H](C)Nc2ccnc3ccc(N4CCC(N(C)C)CC4)cc23)cccc1C(F)(F)F` [Compound 32, (R)-6-(4-(dimethylamino)piperidin-1-yl)-N-(1-(2-methyl-3-(trifluoromethyl)phenyl)ethyl)quinolin-4-amine] the IC50 (SOS1/KRAS-G12D) was 0.01 to 0.1 µM, the IC50 [1] was greater than 0.5 µM and the GI50 (K562 cells) was 0.1 to 0.5 µM.

`CC(=O)N1CCN(c2ccc3nccc(N[C@H](C)c4cccc(C(F)(F)F)c4C)c3c2)C[C@@H]1C` [Compound 33, 1-((S)-2-methyl-4-(4-(((R)-1-(2-methyl-3-(trifluoromethyl)phenyl)ethyl)amino)quinolin-6-yl)piperazin-1-yl)ethan-1-one] was tested, and the IC50 (SOS1/KRAS-G12D) was greater than 0.1 µM, the IC50 [1] was greater than 0.5 µM and the GI50 (K562 cells) was 0.1 to 0.5 µM.

In the case of `Cc1c([C@@H](C)Nc2ccnc3ccc(N4CCN(c5nccs5)CC4)cc23)cccc1C(F)(F)F` [Compound 34, (R)-N-(1-(2-methyl-3-(trifluoromethyl)phenyl)ethyl)-6-(4-(thiazol-2-yl)piperazin-1-yl)quinolin-4-amine], the IC50 (SOS1/KRAS-G12D) is reported as greater than 0.1 µM, the IC50 [1] is reported as greater than 0.5 µM and the GI50 (K562 cells) is reported as 0.1 to 0.5 µM.

`Cc1c([C@@H](C)Nc2ccnc3ccc(N4CCNC(C)(C)C4)cc23)cccc1C(F)(F)F` [Compound 35] gave an IC50 (SOS1/KRAS-G12D) of 0.01 to 0.1 µM, an IC50 [1] greater than 0.5 µM and a GI50 (K562 cells) of 0.1 to 0.5 µM.

With `CC(=O)N1CCN(c2ccc3nccc(N[C@H](C)c4cccc(C(F)(F)F)c4C)c3c2)CC1(C)C` [Compound 36, (R)-1-(2,2-dimethyl-4-(4-((1-(2-methyl-3-(trifluoromethyl)phenyl)ethyl)amino)quinolin-6-yl)piperazin-1-yl)ethan-1-one] the IC50 (SOS1/KRAS-G12D) was 0.01 to 0.1 µM, the IC50 [1] was greater than 0.5 µM and the GI50 (K562 cells) was 0.1 to 0.5 µM.

In the case of `CC(=O)N[C@@H]1CCN(c2ccc3nccc(N[C@H](C)c4cccc(C(F)(F)F)c4C)c3c2)C1` [Compound 38, N-((R)-1-(4-(((R)-1-(2-methyl-3-(trifluoromethyl)phenyl)ethyl)amino)quinolin-6-yl)pyrrolidin-3-yl)acetamide], the IC50 (SOS1/KRAS-G12D) is reported as greater than 0.1 µM, the IC50 [1] is reported as greater than 0.5 µM and the GI50 (K562 cells) is reported as greater than 0.5 µM.

With `CC(=O)N[C@H]1CCN(c2ccc3nccc(N[C@H](C)c4cccc(C(F)(F)F)c4C)c3c2)C1` [Compound 39, N-((S)-1-(4-(((R)-1-(2-methyl-3-(trifluoromethyl)phenyl)ethyl)amino)quinolin-6-yl)pyrrolidin-3-yl)acetamide] the IC50 (SOS1/KRAS-G12D) was greater than 0.1 µM, the IC50 [1] was greater than 0.5 µM and the GI50 (K562 cells) was greater than 0.5 µM.

`CC(=O)N1CCC(O)(c2ccc3nccc(N[C@H](C)c4cccc(C(F)F)c4F)c3c2)CC1` [Compound 40, (R)-1-(4-(4-((1-(3-(difluoromethyl)-2-fluorophenyl)ethyl)amino)quinolin-6-yl)-4-hydroxypiperidin-1-yl)ethan-1-one] was tested, and the IC50 (SOS1/KRAS-G12D) was no more than 0.01 µM, the IC50 [1] was 0.15 to 0.5 µM and the GI50 (K562 cells) was no more than 0.1 µM.

In the case of `CC(=O)N1CCC(F)(c2ccc3nccc(N[C@H](C)c4cccc(C(F)F)c4F)c3c2)CC1` [Compound 41, (R)-1-(4-(4-((1-(3-(difluoromethyl)-2-fluorophenyl)ethyl)amino)quinolin-6-yl)-4-fluoropiperidin-1-yl)ethan-1-one], the IC50 (SOS1/KRAS-G12D) is reported as no more than 0.01 µM, the IC50 [1] is reported as 0.15 to 0.5 µM and the GI50 (K562 cells) is reported as no more than 0.1 µM.

`C[C@@H](Nc1ccnc2ccc(N3CC[C@@H](O)C3)cc12)c1cccc(C(F)F)c1F` [Compound 42, (R)-1-(4-(((R)-1-(3-(difluoromethyl)-2-fluorophenyl)ethyl)amino)quinolin-6-yl)pyrrolidin-3-ol] gave an IC50 (SOS1/KRAS-G12D) of no more than 0.01 µM, an IC50 [1] of no more than 0.15 µM and a GI50 (K562 cells) of no more than 0.1 µM.

Compound `C[C@@H](Nc1ccnc2ccc(N3CC[C@H](O)C3)cc12)c1cccc(C(F)F)c1F` [Compound 43, (S)-1-(4-(((R)-1-(3-(difluoromethyl)-2-fluorophenyl)ethyl)amino)quinolin-6-yl)pyrrolidin-3-ol] has an IC50 (SOS1/KRAS-G12D) of no more than 0.01 µM, an IC50 [1] of 0.15 to 0.5 µM and a GI50 (K562 cells) of 0.1 to 0.5 µM.

`CN[C@@H]1CCN(c2ccc3nccc(N[C@H](C)c4cccc(C(F)F)c4F)c3c2)C1` [Compound 44, N-((R)-1-(3-(difluoromethyl)-2-fluorophenyl)ethyl)-6-((R)-3-(methylamino)pyrrolidin-1-yl)quinolin-4-amine] showed an IC50 (SOS1/KRAS-G12D) of no more than 0.01 µM, an IC50 [1] greater than 0.5 µM and a GI50 (K562 cells) of no more than 0.1 µM.

In the case of `Cc1c([C@@H](C)Nc2ccnc3ccc(N4CCn5c(C)nnc5C4)cc23)cccc1C(F)(F)F` [Compound 45, (R)-N-(1-(2-methyl-3-(trifluoromethyl)phenyl)ethyl)-6-(3-methyl-5,6-dihydro-[1,2,4]triazolo[4,3-a]pyrazin-7(8H)-yl)quinolin-4-amine], the IC50 (SOS1/KRAS-G12D) is reported as 0.01 to 0.1 µM, the IC50 [1] is reported as greater than 0.5 µM and the GI50 (K562 cells) is reported as 0.1 to 0.5 µM.
